Test results published in patent publication US6358885B1, “Substituted phenylheterocyclic herbicides” (Mississippi State University, priority 1992, dated 2002).

What was measured:
Test in all cases: Test B preemergence/postemergence greenhouse plant response rating 0 to 10
morningglory = assay type: in vivo, Ipomoea hederacea; conditions: for Plant response rating (0 to 10 scale), Morningglory: Rate 100 g/ha; for Plant response rating, Morningglory: Rate 400 g/ha, 0 to 10 scale
Method in brief: (§1)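 Test chemicals, dissolved in a non-phytotoxic solvent, were applied to soil at planting and, at the same time, over foliage of seedlings at the one to four leaf stage.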

corn = assay type: in vivo, Zea mays; conditions: for Plant response rating (0 to 10 scale), Corn: Rate 100 g/ha; for Plant response rating, Corn: Rate 400 g/ha, 0 to 10 scale
Method in brief: as §1

wild oat = assay type: in vivo, Avena fatua; conditions: for Plant response rating (0 to 10 scale), Wild oat: Rate 100 g/ha; for Plant response rating, Wild oat: Rate 400 g/ha, 0 to 10 scale
Method in brief: as §1

soybean = assay type: in vivo, Glycine max; conditions: for Plant response rating (0 to 10 scale), Soybean: Rate 100 g/ha; for Plant response rating, Soybean: Rate 400 g/ha, 0 to 10 scale
Method in brief: as §1

barley = assay type: in vivo, Hordeum vulgare; conditions: for Plant response rating (0 to 10 scale), Barley: Rate 100 g/ha; for Plant response rating, Barley: Rate 400 g/ha, 0 to 10 scale
Method in brief: as §1

rape = assay type: in vivo, Brassica napus; conditions: for Plant response rating (0 to 10 scale), Rape: Rate 100 g/ha; for Plant response rating, Rape: Rate 400 g/ha, 0 to 10 scale
Method in brief: as §1

rice = assay type: in vivo, Oryza sativa; conditions: for Plant response rating (0 to 10 scale), Rice: Rate 100 g/ha; for Plant response rating, Rice: Rate 400 g/ha, 0 to 10 scale
Method in brief: as §1

cocklebur = assay type: in vivo, Xanthium pensylvanicum; conditions: for Plant response rating (0 to 10 scale), Cocklebur: Rate 100 g/ha; for Plant response rating, Cocklebur: Rate 400 g/ha, 0 to 10 scale
Method in brief: as §1

blackgrass = assay type: in vivo, Alopecurus myosuroides; conditions: for Plant response rating (0 to 10 scale), Blackgrass: Rate 100 g/ha; for Plant response rating, Blackgrass: Rate 400 g/ha, 0 to 10 scale
Method in brief: as §1

cheatgrass = assay type: in vivo, Bromus secalinus; conditions: for Plant response rating (0 to 10 scale), Cheatgrass: Rate 100 g/ha; for Plant response rating, Cheatgrass: Rate 400 g/ha, 0 to 10 scale
Method in brief: as §1

chickweed = assay type: in vivo, Stellaria media; conditions: for Plant response rating (0 to 10 scale), Chickweed: Rate 100 g/ha; for Plant response rating, Chickweed: Rate 400 g/ha, 0 to 10 scale
Method in brief: as §1

crabgrass = assay type: in vivo, Digitaria spp.; conditions: for Plant response rating (0 to 10 scale), Crabgrass: Rate 100 g/ha; for Plant response rating, Crabgrass: Rate 400 g/ha, 0 to 10 scale
Method in brief: as §1

wild buckwheat = assay type: in vivo, Polygonum convolvulus; conditions: for Plant response rating (0 to 10 scale), Wild buckwheat: Rate 100 g/ha; for Plant response rating, Wild buckwheat: Rate 400 g/ha, 0 to 10 scale
Method in brief: as §1

lambsquarters = assay type: in vivo, Chenopodium album; conditions: for Plant response rating (0 to 10 scale), Lambsquarter: Rate 100 g/ha; for Plant response rating, Lambsquarter: Rate 400 g/ha, 0 to 10 scale
Method in brief: as §1

bedstraw = assay type: in vivo, Galium aparine; conditions: for Plant response rating (0 to 10 scale), Bedstraw: Rate 100 g/ha; for Plant response rating, Bedstraw: Rate 400 g/ha, 0 to 10 scale
Method in brief: as §1

cotton = assay type: in vivo, Gossypium hirsutum; conditions: for Plant response rating (0 to 10 scale), Cotton: Rate 100 g/ha; for Plant response rating, Cotton: Rate 400 g/ha, 0 to 10 scale
Method in brief: as §1

sorghum = assay type: in vivo, Sorghum bicolor; conditions: for Plant response rating (0 to 10 scale), Sorghum: Rate 100 g/ha; for Plant response rating, Sorghum: Rate 400 g/ha, 0 to 10 scale
Method in brief: as §1

wheat = assay type: in vivo, Triticum aestivum; conditions: for Plant response rating (0 to 10 scale), Wheat: Rate 100 g/ha; for Plant response rating, Wheat: Rate 400 g/ha, 0 to 10 scale
Method in brief: as §1

velvetleaf = assay type: in vivo, Abutilon theophrasti; conditions: for Plant response rating (0 to 10 scale), Velvetleaf: Rate 100 g/ha; for Plant response rating, Velvetleaf: Rate 400 g/ha, 0 to 10 scale
Method in brief: as §1

barnyardgrass = assay type: in vivo, Echinochloa crus-galli; conditions: for Plant response rating (0 to 10 scale), Barnyardgrass: Rate 100 g/ha; for Plant response rating, Barnyardgrass: Rate 400 g/ha, 0 to 10 scale
Method in brief: as §1

giant foxtail = assay type: in vivo, Setaria faberii; conditions: for Plant response rating (0 to 10 scale), Giant foxtail: Rate 100 g/ha; for Plant response rating, Giant foxtail: Rate 400 g/ha, 0 to 10 scale
Method in brief: as §1

purple nutsedge = assay type: in vivo, Cyperus rotundus; conditions: for Plant response rating (0 to 10 scale), Nutsedge: Rate 100 g/ha; for Plant response rating, Nutsedge: Rate 400 g/ha, 0 to 10 scale
Method in brief: as §1

sugar beet = assay type: in vivo, Beta vulgaris; conditions: for Plant response rating (0 to 10 scale), Sugar beet: Rate 100 g/ha; for Plant response rating, Sugar beet: Rate 400 g/ha, 0 to 10 scale
Method in brief: as §1

In the case of `Fc1ccc(-c2nc3n(c2Br)CCCC3)c(F)c1` [Compound 7], the “Plant response rating (0 to 10 scale), Morningglory” value (morningglory; POSTEMERGENCE) is reported as 8, the “Plant response rating, Morningglory” value (morningglory; POSTEMERGENCE) is reported as 9 and the “Plant response rating (0 to 10 scale), Morningglory” value (morningglory; PREEMERGENCE) is reported as 0. For the same compound, the “Plant response rating, Morningglory” value (morningglory; PREEMERGENCE) was 0, the “Plant response rating (0 to 10 scale), Corn” value (corn; POSTEMERGENCE) was 3 and the “Plant response rating, Corn” value (corn; POSTEMERGENCE) was 4. The “Plant response rating (0 to 10 scale), Corn” value (corn; PREEMERGENCE) was 0, the “Plant response rating, Corn” value (corn; PREEMERGENCE) was 0 and the “Plant response rating (0 to 10 scale), Wild oat” value (wild oat; POSTEMERGENCE) was 2. For the same compound, the “Plant response rating, Wild oat” value (wild oat; POSTEMERGENCE) was 3, the “Plant response rating (0 to 10 scale), Wild oat” value (wild oat; PREEMERGENCE) was 0 and the “Plant response rating, Wild oat” value (wild oat; PREEMERGENCE) was 0. The “Plant response rating (0 to 10 scale), Soybean” value (soybean; POSTEMERGENCE) was 8, the “Plant response rating, Soybean” value (soybean; POSTEMERGENCE) was 8 and the “Plant response rating (0 to 10 scale), Soybean” value (soybean; PREEMERGENCE) was 0. The “Plant response rating, Soybean” value (soybean; PREEMERGENCE) was 0, the “Plant response rating (0 to 10 scale), Barley” value (barley; POSTEMERGENCE) was 2 and the “Plant response rating, Barley” value (barley; POSTEMERGENCE) was 3. The “Plant response rating (0 to 10 scale), Barley” value (barley; PREEMERGENCE) was 0, the “Plant response rating, Barley” value (barley; PREEMERGENCE) was 0 and the “Plant response rating (0 to 10 scale), Rape” value (rape; POSTEMERGENCE) was 5. For the same compound, the “Plant response rating, Rape” value (rape; POSTEMERGENCE) was 7, the “Plant response rating (0 to 10 scale), Rape” value (rape; PREEMERGENCE) was 0 and the “Plant response rating, Rape” value (rape; PREEMERGENCE) was 0. For the same compound, the “Plant response rating (0 to 10 scale), Rice” value (rice; POSTEMERGENCE) was 5, the “Plant response rating, Rice” value (rice; POSTEMERGENCE) was 5 and the “Plant response rating (0 to 10 scale), Rice” value (rice; PREEMERGENCE) was 0. The “Plant response rating, Rice” value (rice; PREEMERGENCE) was 0, the “Plant response rating (0 to 10 scale), Cocklebur” value (cocklebur; POSTEMERGENCE) was 7 and the “Plant response rating, Cocklebur” value (cocklebur; POSTEMERGENCE) was 8. For the same compound, the “Plant response rating (0 to 10 scale), Cocklebur” value (cocklebur; PREEMERGENCE) was 0, the “Plant response rating, Cocklebur” value (cocklebur; PREEMERGENCE) was 0 and the “Plant response rating (0 to 10 scale), Blackgrass” value (blackgrass; POSTEMERGENCE) was 3. For the same compound, the “Plant response rating, Blackgrass” value (blackgrass; POSTEMERGENCE) was 4, the “Plant response rating (0 to 10 scale), Blackgrass” value (blackgrass; PREEMERGENCE) was 0 and the “Plant response rating, Blackgrass” value (blackgrass; PREEMERGENCE) was 2. For the same compound, the “Plant response rating (0 to 10 scale), Cheatgrass” value (cheatgrass; POSTEMERGENCE) was 3, the “Plant response rating, Cheatgrass” value (cheatgrass; POSTEMERGENCE) was 4 and the “Plant response rating (0 to 10 scale), Cheatgrass” value (cheatgrass; PREEMERGENCE) was 0. The “Plant response rating, Cheatgrass” value (cheatgrass; PREEMERGENCE) was 0, the “Plant response rating (0 to 10 scale), Chickweed” value (chickweed; POSTEMERGENCE) was 3 and the “Plant response rating, Chickweed” value (chickweed; POSTEMERGENCE) was 3. For the same compound, the “Plant response rating (0 to 10 scale), Chickweed” value (chickweed; PREEMERGENCE) was 0, the “Plant response rating, Chickweed” value (chickweed; PREEMERGENCE) was 3 and the “Plant response rating (0 to 10 scale), Crabgrass” value (crabgrass; POSTEMERGENCE) was 4. For the same compound, the “Plant response rating, Crabgrass” value (crabgrass; POSTEMERGENCE) was 4, the “Plant response rating (0 to 10 scale), Crabgrass” value (crabgrass; PREEMERGENCE) was 2 and the “Plant response rating, Crabgrass” value (crabgrass; PREEMERGENCE) was 6. For the same compound, the “Plant response rating (0 to 10 scale), Wild buckwheat” value (wild buckwheat; POSTEMERGENCE) was 9, the “Plant response rating, Wild buckwheat” value (wild buckwheat; POSTEMERGENCE) was 10 and the “Plant response rating (0 to 10 scale), Wild buckwheat” value (wild buckwheat; PREEMERGENCE) was 0. The “Plant response rating, Wild buckwheat” value (wild buckwheat; PREEMERGENCE) was 3, the “Plant response rating (0 to 10 scale), Lambsquarter” value (lambsquarters; POSTEMERGENCE) was 8 and the “Plant response rating, Lambsquarter” value (lambsquarters; POSTEMERGENCE) was 9. The “Plant response rating (0 to 10 scale), Lambsquarter” value (lambsquarters; PREEMERGENCE) was 0, the “Plant response rating, Lambsquarter” value (lambsquarters; PREEMERGENCE) was 6 and the “Plant response rating (0 to 10 scale), Bedstraw” value (bedstraw; POSTEMERGENCE) was 4. The “Plant response rating, Bedstraw” value (bedstraw; POSTEMERGENCE) was 6, the “Plant response rating (0 to 10 scale), Bedstraw” value (bedstraw; PREEMERGENCE) was 0 and the “Plant response rating, Bedstraw” value (bedstraw; PREEMERGENCE) was 2. For the same compound, the “Plant response rating (0 to 10 scale), Cotton” value (cotton; POSTEMERGENCE) was 9, the “Plant response rating, Cotton” value (cotton; POSTEMERGENCE) was 10 and the “Plant response rating (0 to 10 scale), Cotton” value (cotton; PREEMERGENCE) was 0. The “Plant response rating, Cotton” value (cotton; PREEMERGENCE) was 0, the “Plant response rating (0 to 10 scale), Sorghum” value (sorghum; POSTEMERGENCE) was 5 and the “Plant response rating, Sorghum” value (sorghum; POSTEMERGENCE) was 6. The “Plant response rating (0 to 10 scale), Sorghum” value (sorghum; PREEMERGENCE) was 0, the “Plant response rating, Sorghum” value (sorghum; PREEMERGENCE) was 0 and the “Plant response rating (0 to 10 scale), Wheat” value (wheat; POSTEMERGENCE) was 3. For the same compound, the “Plant response rating, Wheat” value (wheat; POSTEMERGENCE) was 5, the “Plant response rating (0 to 10 scale), Wheat” value (wheat; PREEMERGENCE) was 0 and the “Plant response rating, Wheat” value (wheat; PREEMERGENCE) was 0. For the same compound, the “Plant response rating (0 to 10 scale), Velvetleaf” value (velvetleaf; POSTEMERGENCE) was 7, the “Plant response rating, Velvetleaf” value (velvetleaf; POSTEMERGENCE) was 9 and the “Plant response rating (0 to 10 scale), Velvetleaf” value (velvetleaf; PREEMERGENCE) was 1. The “Plant response rating, Velvetleaf” value (velvetleaf; PREEMERGENCE) was 5, the “Plant response rating (0 to 10 scale), Barnyardgrass” value (barnyardgrass; POSTEMERGENCE) was 4 and the “Plant response rating, Barnyardgrass” value (barnyardgrass; POSTEMERGENCE) was 6. For the same compound, the “Plant response rating (0 to 10 scale), Barnyardgrass” value (barnyardgrass; PREEMERGENCE) was 1, the “Plant response rating, Barnyardgrass” value (barnyardgrass; PREEMERGENCE) was 2 and the “Plant response rating (0 to 10 scale), Giant foxtail” value (giant foxtail; POSTEMERGENCE) was 5. For the same compound, the “Plant response rating, Giant foxtail” value (giant foxtail; POSTEMERGENCE) was 5, the “Plant response rating (0 to 10 scale), Giant foxtail” value (giant foxtail; PREEMERGENCE) was 3 and the “Plant response rating, Giant foxtail” value (giant foxtail; PREEMERGENCE) was 4. For the same compound, the “Plant response rating (0 to 10 scale), Nutsedge” value (purple nutsedge; POSTEMERGENCE) was 1, the “Plant response rating, Nutsedge” value (purple nutsedge; POSTEMERGENCE) was 2 and the “Plant response rating (0 to 10 scale), Nutsedge” value (purple nutsedge; PREEMERGENCE) was 0. The “Plant response rating, Nutsedge” value (purple nutsedge; PREEMERGENCE) was 2, the “Plant response rating (0 to 10 scale), Sugar beet” value (sugar beet; POSTEMERGENCE) was 9 and the “Plant response rating, Sugar beet” value (sugar beet; POSTEMERGENCE) was 10. The “Plant response rating (0 to 10 scale), Sugar beet” value (sugar beet; PREEMERGENCE) was 0 and the “Plant response rating, Sugar beet” value (sugar beet; PREEMERGENCE) was 0.
